How the values were obtained:
[1] = target: Serine/threonine-protein kinase PAK 4 (Homo sapiens) (UniProt O96013); conditions: Compound concentration 1000.0 nM
[2] = target: Alpha-1A adrenergic receptor (Homo sapiens) (UniProt P35348); assay: Alpha1A (h) Eurofins-Cerep binding assay; parameters: ligand concentration 0.1 nM; conditions: filed as antagonist, Compound concentration 10.0 uM
[3] = target: Interleukin-1 receptor-associated kinase 4 (Homo sapiens) (UniProt Q9NWZ3); conditions: Compound concentration 1000.0 nM
[4] = target: Serine/threonine-protein kinase Nek11 (Homo sapiens) (UniProt Q8NG66); conditions: Compound concentration 1000.0 nM
[5] = target: Atypical kinase COQ8B, mitochondrial (Homo sapiens) (UniProt Q96D53); conditions: Compound concentration 1000.0 nM
[6] = target: Wee1-like protein kinase (Homo sapiens) (UniProt P30291); conditions: Compound concentration 1000.0 nM
[7] = target: Mitogen-activated protein kinase kinase kinase kinase 5 (Homo sapiens) (UniProt Q9Y4K4); conditions: Compound concentration 1000.0 nM
[8] = target: Serine/threonine-protein kinase pim-3 (Homo sapiens) (UniProt Q86V86); conditions: Compound concentration 1000.0 nM
[9] = target: Mitogen-activated protein kinase 6 (Homo sapiens) (UniProt Q16659); conditions: Compound concentration 1000.0 nM
[10] = target: Cyclin-dependent kinase 13 (Homo sapiens) (UniProt Q14004); conditions: Compound concentration 1000.0 nM
[11] = target: Serine/threonine-protein kinase RIO3 (Homo sapiens) (UniProt O14730); conditions: Compound concentration 1000.0 nM
[12] = target: Serine/threonine-protein kinase PAK 2 (Homo sapiens) (UniProt Q13177); conditions: Compound concentration 1000.0 nM
[13] = target: Serine/threonine-protein kinase Sgk3 (Homo sapiens) (UniProt Q96BR1); conditions: Compound concentration 1000.0 nM
[14] = target: Serine/threonine-protein kinase PAK 1 (Homo sapiens) (UniProt Q13153); conditions: Compound concentration 1000.0 nM
[15] = target: Epidermal growth factor receptor (Homo sapiens) (UniProt P00533); conditions: Compound concentration 1000.0 nM
[16] = target: Mu-type opioid receptor (Homo sapiens) (UniProt P35372); conditions: Compound concentration 10.0 uM
[17] = target: T1, Muscarinic acetylcholine receptor M4 (Homo sapiens) (UniProt P08173); conditions: Compound concentration 10.0 uM
T1 sequence (whole entry): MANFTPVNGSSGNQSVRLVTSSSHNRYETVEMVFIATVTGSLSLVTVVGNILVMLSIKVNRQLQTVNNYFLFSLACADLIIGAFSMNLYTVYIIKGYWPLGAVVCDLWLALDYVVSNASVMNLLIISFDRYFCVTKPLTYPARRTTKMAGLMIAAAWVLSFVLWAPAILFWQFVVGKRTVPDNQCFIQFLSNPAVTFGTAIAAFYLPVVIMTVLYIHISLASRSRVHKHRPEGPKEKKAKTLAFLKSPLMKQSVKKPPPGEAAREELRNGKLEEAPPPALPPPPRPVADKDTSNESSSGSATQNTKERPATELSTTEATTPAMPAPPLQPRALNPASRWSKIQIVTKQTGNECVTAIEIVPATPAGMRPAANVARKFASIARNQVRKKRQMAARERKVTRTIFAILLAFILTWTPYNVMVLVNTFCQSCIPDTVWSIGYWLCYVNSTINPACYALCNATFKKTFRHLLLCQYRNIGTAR

[18] = target: BMP-2-inducible protein kinase (Homo sapiens) (UniProt Q9NSY1); conditions: Compound concentration 1000.0 nM
[19] = target: Serine/threonine-protein kinase Chk2 (Homo sapiens) (UniProt O96017); conditions: Compound concentration 1000.0 nM
[20] = target: NUAK family SNF1-like kinase 1 (Homo sapiens) (UniProt O60285); conditions: Compound concentration 1000.0 nM
[21] = target: Tyrosine-protein kinase HCK (Homo sapiens) (UniProt P08631); conditions: Compound concentration 1000.0 nM
[22] = system: Tyrosine-protein kinase ABL1 (Homo sapiens), P00519 [H396P]; conditions: Compound concentration 1000.0 nM
[23] = target: cAMP-dependent protein kinase catalytic subunit alpha (Homo sapiens) (UniProt P17612); conditions: Compound concentration 1000.0 nM
[24] = target: Cyclin-dependent kinase 2 homolog (Plasmodium falciparum (isolate 3D7)) (UniProt P61075); conditions: Compound concentration 1000.0 nM
[25] = target: LIM domain kinase 2 (Homo sapiens) (UniProt P53671); conditions: Compound concentration 1000.0 nM
[26] = target: Protein kinase C iota type (Homo sapiens) (UniProt P41743); conditions: Compound concentration 1000.0 nM
[27] = target: Sodium/potassium-transporting ATPase (Sus scrofa) (UniProt P05027+P05024+D2WKD8+D2WKD7+F1ST41); assay: ATPase (Na+/K+) Eurofins-Cerep enzyme and uptake assay; type: protein-complex assay; conditions: Compound concentration 10.0 uM
[28] = target: Mitogen-activated protein kinase kinase kinase kinase 2 (Homo sapiens) (UniProt Q12851); conditions: Compound concentration 1000.0 nM
[29] = system: Serine/threonine-protein kinase B-raf (Homo sapiens), P15056 [V600E]; conditions: Compound concentration 1000.0 nM
[30] = target: Serine/threonine-protein kinase PknB (Mycobacterium tuberculosis) (UniProt P9WI81); conditions: Compound concentration 1000.0 nM
[31] = system: Epidermal growth factor receptor (Homo sapiens), P00533 [UNDEFINED MUTATION]; conditions: Compound concentration 1000.0 nM
[32] = target: Serine/threonine-protein kinase 32C (Homo sapiens) (UniProt Q86UX6); conditions: Compound concentration 1000.0 nM
[33] = target: Phosphatidylinositol 5-phosphate 4-kinase type-2 beta (Homo sapiens) (UniProt P78356); conditions: Compound concentration 1000.0 nM
[34] = target: Microtubule-associated serine/threonine-protein kinase 1 (Homo sapiens) (UniProt Q9Y2H9); conditions: Compound concentration 1000.0 nM
[35] = system: Mast/stem cell growth factor receptor Kit (Homo sapiens), P10721 [D816V]; conditions: Compound concentration 1000.0 nM
[36] = target: Ribosomal protein S6 kinase alpha-6 (Homo sapiens) (UniProt Q9UK32); conditions: Compound concentration 1000.0 nM
[37] = target: Homeodomain-interacting protein kinase 3 (Homo sapiens) (UniProt Q9H422); conditions: Compound concentration 1000.0 nM
[38] = target: Bone morphogenetic protein receptor type-2 (Homo sapiens) (UniProt Q13873); conditions: Compound concentration 1000.0 nM

Sequence of Protein kinase C iota type (Homo sapiens) (P41743 whole entry): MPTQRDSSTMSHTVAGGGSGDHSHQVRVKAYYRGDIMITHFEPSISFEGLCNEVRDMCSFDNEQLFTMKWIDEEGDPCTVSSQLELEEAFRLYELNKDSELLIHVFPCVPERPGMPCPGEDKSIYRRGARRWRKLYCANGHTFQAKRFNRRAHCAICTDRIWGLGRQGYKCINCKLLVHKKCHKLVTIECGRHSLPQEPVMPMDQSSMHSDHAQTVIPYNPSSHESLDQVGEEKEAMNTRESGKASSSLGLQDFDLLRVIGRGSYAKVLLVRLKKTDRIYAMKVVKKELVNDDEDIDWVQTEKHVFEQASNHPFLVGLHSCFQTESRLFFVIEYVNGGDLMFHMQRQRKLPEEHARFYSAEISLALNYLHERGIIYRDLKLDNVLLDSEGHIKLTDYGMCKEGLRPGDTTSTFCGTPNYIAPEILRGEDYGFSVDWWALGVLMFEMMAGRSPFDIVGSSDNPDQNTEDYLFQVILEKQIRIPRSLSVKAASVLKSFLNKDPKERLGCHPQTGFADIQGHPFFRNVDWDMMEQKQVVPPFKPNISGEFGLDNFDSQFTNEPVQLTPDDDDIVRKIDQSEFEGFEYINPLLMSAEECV
Sequence of Alpha-1A adrenergic receptor (Homo sapiens) (P35348 whole entry): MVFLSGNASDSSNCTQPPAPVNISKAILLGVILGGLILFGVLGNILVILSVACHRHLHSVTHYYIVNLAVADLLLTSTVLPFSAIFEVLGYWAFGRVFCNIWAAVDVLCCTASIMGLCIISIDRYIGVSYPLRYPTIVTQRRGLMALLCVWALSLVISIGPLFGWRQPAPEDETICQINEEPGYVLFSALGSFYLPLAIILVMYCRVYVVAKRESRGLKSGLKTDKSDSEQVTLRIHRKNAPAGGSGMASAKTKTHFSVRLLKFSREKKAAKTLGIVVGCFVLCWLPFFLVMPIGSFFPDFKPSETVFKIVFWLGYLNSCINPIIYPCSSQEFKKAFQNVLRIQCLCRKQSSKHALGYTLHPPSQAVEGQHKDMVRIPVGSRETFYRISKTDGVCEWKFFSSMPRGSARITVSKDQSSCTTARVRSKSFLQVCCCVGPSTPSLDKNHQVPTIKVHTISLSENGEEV
Sequence of Homeodomain-interacting protein kinase 3 (Homo sapiens) (Q9H422 whole entry, looked up): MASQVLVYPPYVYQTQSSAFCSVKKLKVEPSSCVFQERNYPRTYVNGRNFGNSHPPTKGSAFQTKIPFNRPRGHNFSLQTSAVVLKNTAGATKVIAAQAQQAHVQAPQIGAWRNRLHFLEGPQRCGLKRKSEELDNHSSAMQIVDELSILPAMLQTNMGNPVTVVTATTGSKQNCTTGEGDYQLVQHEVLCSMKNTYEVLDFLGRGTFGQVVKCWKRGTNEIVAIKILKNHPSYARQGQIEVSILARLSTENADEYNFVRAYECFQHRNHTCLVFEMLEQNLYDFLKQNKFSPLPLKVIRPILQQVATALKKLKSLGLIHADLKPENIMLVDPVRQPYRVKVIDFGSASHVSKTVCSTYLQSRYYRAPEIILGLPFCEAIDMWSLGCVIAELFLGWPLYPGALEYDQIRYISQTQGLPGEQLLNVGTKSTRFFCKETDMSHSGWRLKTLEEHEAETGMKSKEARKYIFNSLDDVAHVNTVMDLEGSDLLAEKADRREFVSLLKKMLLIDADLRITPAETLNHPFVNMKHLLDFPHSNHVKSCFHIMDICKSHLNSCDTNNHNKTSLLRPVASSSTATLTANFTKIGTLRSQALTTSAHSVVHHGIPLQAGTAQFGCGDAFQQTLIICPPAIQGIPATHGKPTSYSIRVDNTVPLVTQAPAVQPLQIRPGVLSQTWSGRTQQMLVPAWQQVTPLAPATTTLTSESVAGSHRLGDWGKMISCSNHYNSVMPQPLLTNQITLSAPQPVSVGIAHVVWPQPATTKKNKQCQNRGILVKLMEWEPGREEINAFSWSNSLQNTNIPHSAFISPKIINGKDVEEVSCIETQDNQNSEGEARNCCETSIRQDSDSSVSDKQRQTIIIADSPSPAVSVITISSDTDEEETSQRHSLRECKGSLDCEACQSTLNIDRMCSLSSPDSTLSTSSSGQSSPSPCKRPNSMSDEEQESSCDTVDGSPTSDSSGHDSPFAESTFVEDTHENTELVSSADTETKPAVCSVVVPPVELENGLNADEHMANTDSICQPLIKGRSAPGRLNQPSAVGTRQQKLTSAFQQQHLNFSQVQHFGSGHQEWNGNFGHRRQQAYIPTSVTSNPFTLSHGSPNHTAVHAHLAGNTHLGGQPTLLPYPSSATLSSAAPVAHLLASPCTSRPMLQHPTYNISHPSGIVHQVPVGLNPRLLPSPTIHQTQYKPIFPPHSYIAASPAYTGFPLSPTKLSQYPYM
Sequence of Serine/threonine-protein kinase PAK 1 (Homo sapiens) (Q13153 whole entry): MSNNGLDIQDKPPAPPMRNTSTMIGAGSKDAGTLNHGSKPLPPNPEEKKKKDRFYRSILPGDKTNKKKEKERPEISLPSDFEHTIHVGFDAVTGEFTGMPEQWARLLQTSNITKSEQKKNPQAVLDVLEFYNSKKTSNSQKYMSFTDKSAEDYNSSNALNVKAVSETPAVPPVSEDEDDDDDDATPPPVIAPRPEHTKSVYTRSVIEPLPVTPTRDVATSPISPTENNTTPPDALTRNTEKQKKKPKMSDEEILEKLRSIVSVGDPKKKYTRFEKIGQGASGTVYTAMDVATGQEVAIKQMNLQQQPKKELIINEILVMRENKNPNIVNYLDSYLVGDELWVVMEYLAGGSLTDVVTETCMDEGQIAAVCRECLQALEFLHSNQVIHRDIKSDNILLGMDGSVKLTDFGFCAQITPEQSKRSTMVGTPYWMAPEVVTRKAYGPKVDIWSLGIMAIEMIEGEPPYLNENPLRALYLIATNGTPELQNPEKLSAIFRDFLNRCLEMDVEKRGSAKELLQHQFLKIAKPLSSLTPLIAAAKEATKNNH
Sequence of Cyclin-dependent kinase 13 (Homo sapiens) (Q14004 whole entry, looked up): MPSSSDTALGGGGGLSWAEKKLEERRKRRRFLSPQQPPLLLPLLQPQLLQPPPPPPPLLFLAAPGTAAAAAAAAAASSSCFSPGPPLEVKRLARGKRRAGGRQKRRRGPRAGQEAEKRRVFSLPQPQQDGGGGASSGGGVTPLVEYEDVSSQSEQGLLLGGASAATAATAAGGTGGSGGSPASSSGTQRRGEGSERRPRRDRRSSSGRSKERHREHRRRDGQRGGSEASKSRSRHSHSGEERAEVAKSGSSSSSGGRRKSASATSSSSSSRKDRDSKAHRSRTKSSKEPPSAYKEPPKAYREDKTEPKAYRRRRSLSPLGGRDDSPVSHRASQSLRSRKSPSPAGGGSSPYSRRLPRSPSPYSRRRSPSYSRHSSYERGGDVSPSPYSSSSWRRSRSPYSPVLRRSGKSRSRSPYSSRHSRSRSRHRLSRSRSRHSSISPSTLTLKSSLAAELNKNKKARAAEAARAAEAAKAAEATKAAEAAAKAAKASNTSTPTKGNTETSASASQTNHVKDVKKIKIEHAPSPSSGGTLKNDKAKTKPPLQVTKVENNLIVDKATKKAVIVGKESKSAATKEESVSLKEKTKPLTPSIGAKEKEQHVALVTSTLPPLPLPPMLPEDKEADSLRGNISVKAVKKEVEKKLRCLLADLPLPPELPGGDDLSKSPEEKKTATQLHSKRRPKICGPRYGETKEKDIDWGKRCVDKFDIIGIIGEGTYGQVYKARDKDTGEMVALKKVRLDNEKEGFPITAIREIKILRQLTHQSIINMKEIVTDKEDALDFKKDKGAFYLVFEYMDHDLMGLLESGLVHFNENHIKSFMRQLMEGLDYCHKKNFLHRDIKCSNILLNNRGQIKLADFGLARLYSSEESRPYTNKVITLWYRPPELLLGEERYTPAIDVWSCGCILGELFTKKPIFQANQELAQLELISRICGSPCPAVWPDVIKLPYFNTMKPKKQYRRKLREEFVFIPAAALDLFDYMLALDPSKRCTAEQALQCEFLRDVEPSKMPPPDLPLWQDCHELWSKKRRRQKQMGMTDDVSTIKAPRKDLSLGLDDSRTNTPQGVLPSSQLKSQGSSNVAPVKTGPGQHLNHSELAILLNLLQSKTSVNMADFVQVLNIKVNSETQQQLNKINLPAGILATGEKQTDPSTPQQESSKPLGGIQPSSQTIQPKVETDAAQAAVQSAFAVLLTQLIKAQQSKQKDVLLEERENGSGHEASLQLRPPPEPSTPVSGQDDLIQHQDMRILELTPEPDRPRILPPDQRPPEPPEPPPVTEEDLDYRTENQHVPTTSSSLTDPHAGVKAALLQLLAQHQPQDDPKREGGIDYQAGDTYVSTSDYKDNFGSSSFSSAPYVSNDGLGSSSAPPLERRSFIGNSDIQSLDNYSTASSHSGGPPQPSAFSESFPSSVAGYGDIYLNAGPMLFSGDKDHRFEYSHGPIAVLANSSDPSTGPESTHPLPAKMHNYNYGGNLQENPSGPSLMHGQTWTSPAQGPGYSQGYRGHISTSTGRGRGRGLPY
Sequence of Atypical kinase COQ8B, mitochondrial (Homo sapiens) (Q96D53 whole entry): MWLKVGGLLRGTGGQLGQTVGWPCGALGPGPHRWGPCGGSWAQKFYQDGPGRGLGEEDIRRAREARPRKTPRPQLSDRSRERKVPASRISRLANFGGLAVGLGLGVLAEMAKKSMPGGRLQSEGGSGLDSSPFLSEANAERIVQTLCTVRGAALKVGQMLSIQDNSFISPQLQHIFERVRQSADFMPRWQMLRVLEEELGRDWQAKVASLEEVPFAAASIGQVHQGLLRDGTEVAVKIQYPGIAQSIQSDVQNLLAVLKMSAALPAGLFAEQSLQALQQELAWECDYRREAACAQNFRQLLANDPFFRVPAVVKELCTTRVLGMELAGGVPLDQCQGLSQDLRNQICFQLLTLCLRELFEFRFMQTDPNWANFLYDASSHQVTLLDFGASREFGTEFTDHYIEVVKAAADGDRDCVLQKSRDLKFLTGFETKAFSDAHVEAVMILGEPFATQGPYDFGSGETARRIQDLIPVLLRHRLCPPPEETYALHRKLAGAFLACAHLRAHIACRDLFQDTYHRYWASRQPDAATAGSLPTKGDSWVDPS

| SMILES | residual activity [1] [%] | % Inhibition of Control Specific Binding (Mean n=2) [2] [%] | residual activity [3] [%] | residual activity [4] [%] | residual activity [5] [%] | residual activity [6] [%] | residual activity [7] [%] | residual activity [8] [%] | residual activity [9] [%] | residual activity [10] [%] | residual activity [11] [%] | residual activity [12] [%] | residual activity [13] [%] | residual activity [14] [%] | residual activity [15] [%] | inhibition [16] [%] | inhibition [17] [%] | residual activity [18] [%] | residual activity [19] [%] | residual activity [20] [%] | other results |
| --- | --- | --- | --- | --- | --- | --- | --- | --- | --- | --- | --- | --- | --- | --- | --- | --- | --- | --- | --- | --- | --- |
| O=C(NS(=O)(=O)c1ccc(NCC2CCOCC2)c([N+](=O)[O-])c1)c1ccc(N2CCN(Cc3ccc(C(F)(F)F)cc3-c3ccc(Cl)cc3)CC2)cc1Oc1cnc2[nH]ccc2c1 [A-1210227] | 93 | -5.1 | 85 | 97 | 90 | 100 | 98 | 100 | 100 | 63 | 98 | 100 | 92 | 100 | 84 | 10.7 | -5.79 | 94 | 95 | 98 | residual activity [21]: 99%; residual activity [22]: 94%; residual activity [23]: 76%; residual activity [24]: 100%; residual activity [25]: 97%; residual activity [26]: 100%; % Inhibition of Control Values (Mean n=2) [27]: 19.7%; residual activity [28]: 76%; residual activity [29]: 83%; residual activity [30]: 90%; residual activity [31]: 100%; residual activity [32]: 55%; residual activity [33]: 100%; residual activity [34]: 100%; residual activity [35]: 100%; residual activity [36]: 100%; residual activity [37]: 100%; residual activity [38]: 100% |
| CO[C@H]1CC[C@H](CNc2ccc(S(=O)(=O)NC(=O)c3ccc(N4CCN(CC5=C(c6ccc(Cl)cc6)CC(C)(C)CC5)CC4)cc3Oc3cnc4[nH]ccc4c3)cc2[N+](=O)[O-])CC1 [A-1211212] | 78 | -3.8 | 83 | 100 | 100 | 100 | 93 | 74 | 81 | 100 | 100 | 68 | 99 | 78 | 62 | 10.2 | -0.31 | 94 | 89 | 100 | residual activity [21]: 71%; residual activity [22]: 92%; residual activity [23]: 78%; residual activity [24]: 100%; residual activity [25]: 80%; residual activity [26]: 79%; % Inhibition of Control Values (Mean n=2) [27]: 5.4%; residual activity [28]: 83%; residual activity [29]: 93%; residual activity [30]: 86%; residual activity [31]: 100%; residual activity [32]: 54%; residual activity [33]: 96%; residual activity [34]: 96%; residual activity [35]: 100%; residual activity [36]: 81%; residual activity [37]: 100%; residual activity [38]: 100% |
